Data as given in publication PMC4356374, “Structural characterization of substrate and inhibitor binding to farnesyl pyrophosphate synthase from Pseudomonas aeruginosa” (Acta Crystallographica Section D: Biological Crystallography, 2015).

How the values were obtained:
[1] = target: T1, farnesyl pyrophosphate synthase (PaFPPS, PA4043) (Pseudomonas aeruginosa, UniProt Q9HWY4); assay: X-ray crystal structure at […] Å (also with GPP, 3zou); DSF shift […] °C; no significant inhibition at […]; assay type: binding
T1 construct: gene ispA; full-length, 295 amino acids, His tag cleaved with TEV

[2] = target: T2, farnesyl pyrophosphate synthase (PaFPPS, PA4043) (Pseudomonas aeruginosa, UniProt Q9HWY4); assay: turnover with GPP by the purified enzyme, pyrophosphatase-coupled malachite green assay (kcat […] s^-1; no inhibition implied); assay type: biochemical
T2 construct: gene ispA; full-length, 295 amino acids
T2 sequence (Q9HWY4 1-295): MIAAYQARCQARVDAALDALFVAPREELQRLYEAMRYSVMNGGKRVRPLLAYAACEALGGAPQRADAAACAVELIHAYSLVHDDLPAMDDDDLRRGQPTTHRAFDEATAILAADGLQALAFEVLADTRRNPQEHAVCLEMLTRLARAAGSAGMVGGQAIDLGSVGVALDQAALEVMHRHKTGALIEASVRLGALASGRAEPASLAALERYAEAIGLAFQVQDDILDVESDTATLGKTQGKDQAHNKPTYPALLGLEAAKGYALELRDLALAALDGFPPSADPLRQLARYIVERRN

[3] = target: the molecule itself; assay: crystal structure; sitting-drop vapour diffusion, 25 mg/ml protein; native: 20% PEG 3350, 0.2 M NaF, 0.1 M bis-tris propane pH 6.5; asymmetric unit holds a dimer related by a twofold noncrystallographic axis; 1.55 A

## O=C(O)CCn1c(=O)oc2ccccc21 [SPB02696, 3-[2-hydrozybenzo[d]oxazol-3(2H)-yl]propanoic acid]
[1]
  X-ray crystal structure at 1.90 Å (also with GPP, 3zou); DSF shift 2.8 °C; no si: we describe the details of the enzyme–ligand interactions for fragment hit SPB02696 (termed 6H6 in the deposited coordinate file)

## C=C(C)CCO[P@@](=O)(O)OP(=O)(O)O [isopentenyl pyrophosphate]
[2]
  turnover with GPP by the purified enzyme, pyrophosphatase-coupled malachite gree: no reaction took place without both IPP and GPP being present

B1: farnesyl pyrophosphate synthase from Pseudomonas aeruginosa PAO1 (locus PA4043) (enzyme, UniProt Q9HWY4 1-295, looked up)
chain: MIAAYQARCQARVDAALDALFVAPREELQRLYEAMRYSVMNGGKRVRPLLAYAACEALGGAPQRADAAACAVELIHAYSLVHDDLPAMDDDDLRRGQPTTHRAFDEATAILAADGLQALAFEVLADTRRNPQEHAVCLEMLTRLARAAGSAGMVGGQAIDLGSVGVALDQAALEVMHRHKTGALIEASVRLGALASGRAEPASLAALERYAEAIGLAFQVQDDILDVESDTATLGKTQGKDQAHNKPTYPALLGLEAAKGYALELRDLALAALDGFPPSADPLRQLARYIVERRN
notes: farnesyl pyrophosphate synthase, P. aeruginosa PAO1, locus PA4043; open reading frame amplified from the genome; protein of 295 amino acids; residues Ala227-Gly254 (loop-HI) disordered in all structures; Vector pNIC28-Bsa4 with N-terminal six-histidine tag and TEV site; the tag is cleaved in the purification; The ESI-MS mass of 34 017.5 Da was of the protein with the His tag; also called PaFPPS; …
[3]
  stoichiometry N: 2
